Our source for the IC50 values is patent US20260285875A1, “INHIBITORS OF PARG” (858 Therapeutics, Inc., priority 2023, published 2026).

In this assay the target is T1, cellular PARG (Homo sapiens, UniProt Q86W56).
T1 construct: endogenous in cells; host or cells: HeLa
Nature of the assay: Nuclear PAR accumulation assay (immunofluorescence high-content imaging, MMS-treated HeLa cells). Type of assay: cell-based. The note with it: 1 hour compound then MMS 50 μg/mL for an additional hour. In outline: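 HeLa cells pretreated with compound for 1 h at 37° C, then given 50 μg/mL MMS for another hour. After methanol fixation, PAR was immunostained with DAPI nuclear counterstain; per-nucleus intensity and percent PAR-positive cells were imaged at 20× (≥1,000 cells/well). IC50 from four-parameter logistic fit.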

Broadly, the IC50 is the concentration needed to halve the response being measured. The low end stands for greater potency in that assay, the high end for weaker potency in that assay.

T1 sequence (Q86W56 whole entry): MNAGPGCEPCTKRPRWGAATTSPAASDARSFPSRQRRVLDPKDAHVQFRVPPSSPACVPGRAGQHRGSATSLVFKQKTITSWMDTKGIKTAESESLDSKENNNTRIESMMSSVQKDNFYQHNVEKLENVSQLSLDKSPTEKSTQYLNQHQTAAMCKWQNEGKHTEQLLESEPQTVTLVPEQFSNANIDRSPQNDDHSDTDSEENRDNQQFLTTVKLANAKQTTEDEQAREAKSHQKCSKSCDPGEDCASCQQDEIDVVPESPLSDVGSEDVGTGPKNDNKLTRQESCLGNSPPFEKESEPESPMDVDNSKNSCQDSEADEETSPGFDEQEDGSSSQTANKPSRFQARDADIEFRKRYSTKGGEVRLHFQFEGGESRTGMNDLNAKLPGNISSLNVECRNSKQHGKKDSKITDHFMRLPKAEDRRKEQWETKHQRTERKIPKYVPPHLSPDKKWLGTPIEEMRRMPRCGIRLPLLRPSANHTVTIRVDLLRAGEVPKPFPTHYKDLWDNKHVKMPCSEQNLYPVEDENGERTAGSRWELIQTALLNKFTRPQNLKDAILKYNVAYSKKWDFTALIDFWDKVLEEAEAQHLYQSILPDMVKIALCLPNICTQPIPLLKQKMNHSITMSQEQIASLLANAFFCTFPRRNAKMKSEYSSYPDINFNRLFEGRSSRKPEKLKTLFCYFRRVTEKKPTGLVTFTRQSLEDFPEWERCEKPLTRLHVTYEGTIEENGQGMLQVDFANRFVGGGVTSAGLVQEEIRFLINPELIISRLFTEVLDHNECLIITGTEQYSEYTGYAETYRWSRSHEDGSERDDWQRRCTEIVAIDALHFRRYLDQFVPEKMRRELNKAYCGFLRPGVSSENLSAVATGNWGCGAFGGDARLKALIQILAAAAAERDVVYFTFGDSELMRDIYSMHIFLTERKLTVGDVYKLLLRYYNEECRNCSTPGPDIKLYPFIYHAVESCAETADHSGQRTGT

The compound `C[C@@H]1CN=C2N(Cc3ccnc(C#N)c3)C(=O)c3cc(S(=O)(=O)NC4(C)CC4)ccc3N21` [Example 239, (R)-4-((2-cyanopyridin-4-yl)methyl)-1-methyl-N-(1-methylcyclopropyl)-5-oxo-1,2,4,5-tetrahydroimidazo[1,2-a]quinazoline-7-sulfonamide] gave an IC50 of 100 to 1000 nM. In turn, `[2H]C([2H])(c1cnn(C)c1)N1C(=O)c2cc(S(=O)(=O)NC3(C)CC3)c(SC)cc2N2C1=N[C@H]1CCC[C@H]12` [Example 240, (7aS,10aR)-6-((1-methyl-1H-pyrazol-4-yl)methyl-d2)-N-(1-methylcyclopropyl)-2-(methylthio)-5-oxo-6,7a,8,9,10,10a-hexahydro-5H-cyclopenta[4,5]imidazo[1,2-a]quinazoline-3-sulfonamide] displayed a concentration for half-maximal inhibition (IC50) of 100 to 1000 nM. Consider `[2H]C([2H])(c1cnn(C)c1)N1C(=O)c2cc(S(=O)(=O)NC3(C)CC3)ccc2N2C1=NC[C@H]2C#CC1(N(CC)CC)CC1` [Example 241, (R)-1-((1-(diethylamino)cyclopropyl)ethynyl)-4-((1-methyl-1H-pyrazol-4-yl)methyl-d2)-N-(1-methylcyclopropyl)-5-oxo-1,2,4,5-tetrahydroimidazo[1,2-a]quinazoline-7-sulfonamide], for which the IC50 is < 100 nM.

For `[2H]C([2H])(c1cnn(C)c1)N1C(=O)c2cc(S(=O)(=O)NC3(C)CC3)ccc2N2C1=NC[C@H]2C#Cc1ncccc1C` [Example 242, (R)-4-((1-methyl-1H-pyrazol-4-yl)methyl-d2)-N-(1-methylcyclopropyl)-1-((3-methylpyridin-2-yl)ethynyl)-5-oxo-1,2,4,5-tetrahydroimidazo[1,2-a]quinazoline-7-sulfonamide], the IC50 is < 100 nM.

On to `C[C@@H]1CN=C2N(Cc3cn(C)nc3CC#N)C(=O)c3cc(S(=O)(=O)NC4(C)CC4)ccc3N21` [Example 243, (R)-4-((3-(cyanomethyl)-1-methyl-1H-pyrazol-4-yl)methyl)-1-methyl-N-(1-methylcyclopropyl)-5-oxo-1,2,4,5-tetrahydroimidazo[1,2-a]quinazoline-7-sulfonamide], for which the IC50 is < 100 nM. Next, `[2H]C([2H])(c1cnn(C)c1)N1C(=O)c2cc(S(=O)(=O)NC3(C)CC3)ccc2N2C1=NC[C@H]2C#CC1(N(C)CCO)CC1` [Example 244, (R)-1-((1-((2-hydroxyethyl)(methyl)amino)cyclopropyl)ethynyl)-4-((1-methyl-1H-pyrazol-4-yl)methyl-d2)-N-(1-methylcyclopropyl)-5-oxo-1,2,4,5-tetrahydroimidazo[1,2-a]quinazoline-7-sulfonamide]: < 100 nM. For `CCN1C(=O)c2cc(S(=O)(=O)NC3(C)CC3)ccc2N2C1=NC[C@H]2C#Cc1c(F)cnn1C` [Example 245, (R)-4-ethyl-1-((4-fluoro-1-methyl-1H-pyrazol-5-yl)ethynyl)-N-(1-methylcyclopropyl)-5-oxo-1,2,4,5-tetrahydroimidazo[1,2-a]quinazoline-7-sulfonamide], the IC50 was < 100 nM.

Consider `[2H]C([2H])(c1cnn(C)c1)N1C(=O)c2cc(S(=O)(=O)NC3(C)CC3)ccc2N2C1=NC[C@H]2C#Cc1cncnc1` [Example 246, (R)-4-((1-methyl-1H-pyrazol-4-yl)methyl-d2)-N-(1-methylcyclopropyl)-5-oxo-1-(pyrimidin-5-ylethynyl)-1,2,4,5-tetrahydroimidazo[1,2-a]quinazoline-7-sulfonamide], for which the IC50 was < 100 nM. `C[C@@H]1CN=C2N(Cc3cccnc3CC#N)C(=O)c3cc(S(=O)(=O)NC4(C)CC4)ccc3N21` [Example 247, (R)-4-((2-(cyanomethyl)pyridin-3-yl)methyl)-1-methyl-N-(1-methylcyclopropyl)-5-oxo-1,2,4,5-tetrahydroimidazo[1,2-a]quinazoline-7-sulfonamide] gave a concentration for half-maximal inhibition (IC50) of 100 to 1000 nM. `Cn1cc(CN2C(=O)c3cc(S(=O)(=O)NC4(C)CC4)ccc3N3C2=NC[C@H]3C#C[C@H]2CCCN2)cn1` [Example 248, (R)-4-((1-methyl-1H-pyrazol-4-yl)methyl)-N-(1-methylcyclopropyl)-5-oxo-1-(((R)-pyrrolidin-2-yl)ethynyl)-1,2,4,5-tetrahydroimidazo[1,2-a]quinazoline-7-sulfonamide] showed an IC50 of 100 to 1000 nM.

`[2H]C([2H])(c1cnn(C)c1)N1C(=O)c2cc(S(=O)(=O)NC3(C)CC3)ccc2N2C1=NC[C@H]2C#Cc1nccnc1OC` [Example 249, (R)-1-((3-methoxypyrazin-2-yl)ethynyl)-4-((1-methyl-1H-pyrazol-4-yl)methyl-d2)-N-(1-methylcyclopropyl)-5-oxo-1,2,4,5-tetrahydroimidazo[1,2-a]quinazoline-7-sulfonamide]: the IC50 is < 100 nM. Next, `[2H]C([2H])(c1cnn(C)c1)N1C(=O)c2cc(S(=O)(=O)NC3(C)CC3)ccc2N2C1=NC[C@H]2C#Cc1cccnc1N` [Example 250, (R)-1-((2-aminopyridin-3-yl)ethynyl)-4-((1-methyl-1H-pyrazol-4-yl)methyl-d2)-N-(1-methylcyclopropyl)-5-oxo-1,2,4,5-tetrahydroimidazo[1,2-a]quinazoline-7-sulfonamide]: < 100 nM. For the compound `[2H]C([2H])(c1cnn(C)c1)N1C(=O)c2cc(S(=O)(=O)NC3(C)CC3)ccc2N2C1=NC[C@H]2C#Cc1ncc(C)nc1C` [Example 251, (R)-1-((3,5-dimethylpyrazin-2-yl)ethynyl)-4-((1-methyl-1H-pyrazol-4-yl)methyl-d2)-N-(1-methylcyclopropyl)-5-oxo-1,2,4,5-tetrahydroimidazo[1,2-a]quinazoline-7-sulfonamide], the IC50 is < 100 nM. In the case of `[2H]C([2H])(c1cnn(C)c1)N1C(=O)c2cc(S(=O)(=O)NC3(C)CC3)ccc2N2C1=NC[C@H]2C#Cc1cncc(N)c1` [Example 252, (R)-1-((5-aminopyridin-3-yl)ethynyl)-4-((1-methyl-1H-pyrazol-4-yl)methyl-d2)-N-(1-methylcyclopropyl)-5-oxo-1,2,4,5-tetrahydroimidazo[1,2-a]quinazoline-7-sulfonamide], the IC50 was < 100 nM. Turning to `[2H]C([2H])(c1cnn(C)c1)N1C(=O)c2cc(S(=O)(=O)NC3(C)CC3)ccc2N2C1=NC[C@H]2C#Cc1cncc(N(C)C)c1` [Example 253, (R)-1-((5-(dimethylamino)pyridin-3-yl)ethynyl)-4-((1-methyl-1H-pyrazol-4-yl)methyl-d2)-N-(1-methylcyclopropyl)-5-oxo-1,2,4,5-tetrahydroimidazo[1,2-a]quinazoline-7-sulfonamide], the IC50 was < 100 nM. With `C=Cc1ccc(CN2C(=O)c3cc(S(=O)(=O)NC4(C)CC4)ccc3N3C2=NC[C@H]3C)cn1` [Example 254, (R)-1-methyl-N-(1-methylcyclopropyl)-5-oxo-4-((6-vinylpyridin-3-yl)methyl)-1,2,4,5-tetrahydroimidazo[1,2-a]quinazoline-7-sulfonamide] the figure was 100 to 1000 nM; with `C=Cc1cc(CN2C(=O)c3cc(S(=O)(=O)NC4(C)CC4)ccc3N3C2=NC[C@H]3C)ccn1` [Example 255, (R)-1-methyl-N-(1-methylcyclopropyl)-5-oxo-4-((2-vinylpyridin-4-yl)methyl)-1,2,4,5-tetrahydroimidazo[1,2-a]quinazoline-7-sulfonamide], < 100 nM.
